The values below come from patent US10173968B2, “Bishydrazone-based antifungal agents” (University of Kentucky Research Foundation, priority 2016, dated 2019).

One series has as its system C. albicans ATCC 1237. The series is described as follows: Antifungal MIC, CLSI M27-A3 microbroth dilution. Type of series: cell-based, Candida albicans. Particulars: Candida albicans, ATCC1237, C. albicans ATCC 1237, resistant to FLC, ITC, and VOR, read-out: MIC. The method, then:
In vitro MIC testing was performed according to the CLSI M27-A3 standard microbroth dilution methodology for the susceptibility testing of yeasts with minor modifications.

The test system of series [1] is P. aeruginosa ATCC 27853 (strain I). Type of series: cell-based. Particulars: up to 15 passages. The method, then: (§1) The bacteria were grown in MH broth at 37° C. for these experiments. […] The resulting cultures were diluted 1:1000 and grown until the culture reached ˜300,000 cfu/mL. That culture was then further diluted 1:1000 and used to determine the next round of MIC values.

The subject of a further series is VRE (strain D). Type of series: cell-based, enterococcus. Particulars: up to 15 passages. The method, then:
as §1

In series [2] the test system is L. monocytogenes ATCC 19115 (strain B). In kind it is cell-based, Listeria monocytogenes. Particulars: up to 15 passages. The method, then:
as §1

For a further series, the system named is MRSA (strain C). Type of series: cell-based, Staphylococcus aureus. To be noted: up to 15 passages. The protocol:
as §1

In series [3] the test system is C. albicans ATCC 10231. The series is described as follows: Intracellular ROS production, DCFH-DA fluorescence assay. Type of series: cell-based, Candida albicans. Particulars: at 1× and 2× MIC values, 1 h at 35° C. An excerpt:
We used the 2′,7′-dichlorodihydrofluorescein diacetate (DCFH-DA) dye as a probe to measure the production of ROS in yeast cells upon treatment with our compounds. DCFH-DA can easily cross the cell membranes and be hydrolyzed by cellular esterases to the non-fluorescent 2′,7′-dichlorodihydrofluorescein (DCFH), which can further be oxidized to the highly fluorescent 2′,7′-dichlorofluorescein (DCF) by the intracellular ROS. Five mL of RPMI 1640 medium were inoculated using a single colony of C. albicans ATCC 10231 (strain A) in a Falcon tube and grown overnight at 35° C. at 200 rpm. The overnight culture was diluted by adding 200 μL of yeast cells to 800 μL of the same medium. […] H2O2 at 1 mM was also used as a positive control. Cells were centrifuged and washed twice with PBS buffer (pH 7.2). Cells were resuspended in the same buffer and incubated with DCFH-DA (20 μg/mL) for 30 min in the dark. Afterwards, cells were centrifuged and washed with PBS buffer to remove excess DCFH-DA. Glass slides with 10-15 μL of each mixture were prepared and observed in bright field and fluorescence modes (FITC filter set, excitation and emission wavelengths of 488 and 512 nm, respectively) using a Zeiss Axovert 200M fluorescence microscope (FIG. 3).

In series [4] the test system is C. albicans ATCC 10231. Type of series: cell-based, Candida albicans. Particulars: repeated treatments with sub-MIC drug concentrations.
A further series concerns the target hERG channel (Homo sapiens, UniProt Q12809). The series is described as follows: in vitro. To be noted: pH 7.4. The method, then:
Assays were conducted in duplicate, and three independent assays were performed for each compound that was evaluated. Cell membrane suspension (5 μg) was added to duplicate tubes containing assay buffer (50 mM Tris, 10 mM KCl, and 1 mM MgCl2, pH 7.4), 25 μL of a single concentration of analogue (a concentration range of 10 nM-100 μM was employed for each experiment), and 25 μL of [^3H]dofetilide (5 nM, final concentration) for an assay volume of 250 μL. Nonspecific binding was assessed in the presence of 1 mM amitriptyline. Binding occurred for 60 min at 25° C. and was terminated by rapid filtration through Whatman GF/B filters, which were pre-soaked in 0.5% PEI for 2 h. Filters were washed three times with ˜1 mL of ice-cold assay buffer. Radioactivity retained by the filters was determined by liquid scintillation counting by using a Tri-Carb 2100TR liquid scintillation analyzer (PerkinElmer Life and Analytical Sciences, Boston, Mass.).

The structures appear in SMILES notation. Where two headings read alike, the source gives them in different places.

Sequence of hERG channel (Q12809 whole entry): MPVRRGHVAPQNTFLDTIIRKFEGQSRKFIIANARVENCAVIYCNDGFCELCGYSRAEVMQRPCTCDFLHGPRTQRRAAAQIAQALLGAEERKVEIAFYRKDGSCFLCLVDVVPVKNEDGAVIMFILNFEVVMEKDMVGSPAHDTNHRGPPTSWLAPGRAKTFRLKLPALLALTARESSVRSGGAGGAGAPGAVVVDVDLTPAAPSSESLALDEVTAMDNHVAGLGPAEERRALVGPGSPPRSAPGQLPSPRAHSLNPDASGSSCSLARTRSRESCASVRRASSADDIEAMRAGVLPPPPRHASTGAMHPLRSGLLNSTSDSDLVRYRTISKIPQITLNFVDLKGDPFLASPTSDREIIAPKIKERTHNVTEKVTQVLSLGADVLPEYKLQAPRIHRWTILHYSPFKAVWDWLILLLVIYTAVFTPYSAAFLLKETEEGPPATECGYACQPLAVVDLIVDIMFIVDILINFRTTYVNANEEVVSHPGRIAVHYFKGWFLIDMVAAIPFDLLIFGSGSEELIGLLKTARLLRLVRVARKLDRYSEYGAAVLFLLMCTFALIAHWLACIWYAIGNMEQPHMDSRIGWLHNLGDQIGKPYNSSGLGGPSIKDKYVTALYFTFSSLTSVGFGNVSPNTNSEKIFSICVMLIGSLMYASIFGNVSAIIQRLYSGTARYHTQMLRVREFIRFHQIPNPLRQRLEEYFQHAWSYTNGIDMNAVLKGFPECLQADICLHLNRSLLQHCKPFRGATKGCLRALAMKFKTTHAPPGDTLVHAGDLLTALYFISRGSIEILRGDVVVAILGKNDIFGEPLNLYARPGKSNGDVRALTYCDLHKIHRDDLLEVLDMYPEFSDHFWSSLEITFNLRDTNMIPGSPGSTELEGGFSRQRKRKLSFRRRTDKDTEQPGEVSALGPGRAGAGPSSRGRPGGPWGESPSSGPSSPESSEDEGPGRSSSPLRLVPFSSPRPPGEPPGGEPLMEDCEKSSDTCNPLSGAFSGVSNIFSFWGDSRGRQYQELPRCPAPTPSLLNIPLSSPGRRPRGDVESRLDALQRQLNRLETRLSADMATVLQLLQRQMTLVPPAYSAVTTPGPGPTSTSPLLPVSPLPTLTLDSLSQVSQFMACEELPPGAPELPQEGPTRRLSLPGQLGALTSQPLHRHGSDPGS

`Cl.N=C(N)N/N=C/c1ccc(-c2ccc(/C=N/Nc3ccc(Cl)cc3)cc2)cc1` [Compound 7Ad, (E)-2-((4′-((E)-(2-(4-Chlorophenyl)hydrazono)methyl)-[1,1′-biphenyl]-4-yl)methylene)hydrazine-1-carboximidamide monohydrochloride] yielded a melting point greater than 380 °C. Also, the MIC in the series with C. albicans ATCC 1237 (converted from μg/mL) was 36.5 µM. Besides, the MIC with C. albicans ATCC 1237 is 15.6 µg/mL.
Compound `Cl.N=C(N)N/N=C/c1ccc(-c2ccc(/C=N/Nc3ccc(F)cc3F)cc2)cc1` [Compound 7Af, (E)-2-((4′-((E)-(2-(2,4-Difluorophenyl)hydrazono)methyl)-[1,1′-biphenyl]-4-yl)methylene) hydrazine-1-carboximidamide, monohydrochloride] registered a melting point greater than 380 °C. Further, the minimal inhibitory concentration (MIC) with C. albicans ATCC 1237 (converted from μg/mL) was 9.1 µM. In addition, the MIC in the series on C. albicans ATCC 1237 worked out at 3.9 µg/mL.
In the case of `Cl.Cl.N=C(N)N/N=C/c1ccc(-c2cccc(/C=N/NC(=N)N)c2)cc1` [Compound 3B, (2E,2′E)-2,2′-([1,1′-Biphenyl]-3,4′-diylbis(methanylylidene))bis(hydrazine-1-carboximidamide) dihydrochloride], the values for the MIC in the series with C. albicans ATCC 1237 (converted from μg/mL) and with C. albicans ATCC 1237 were 9.9 µM and 3.9 µg/mL, respectively.
With `Cl.N=C(N)N/N=C/c1ccc(-c2ccc(C=NNc3ccccc3Cl)cc2)cc1` (mixture of isomers) [Compound 7Aa, E)-2-((4′-((E and Z)-(2-(2-Chlorophenyl)hydrazono)methyl)-[1,1′-biphenyl]-4-yl)methylene)hydrazine-1-carboximidamide monohydrochloride], the “development of resistance (passages after which resistance developed)” value in series [1] is “twelve”; with VRE (strain D), “did not develop resistance”; in series [2], “did not develop resistance”; in the series on MRSA (strain C) it was “twelve”. For the same compound, the values for the MIC in the series with C. albicans ATCC 1237 (converted from μg/mL) and in the series on C. albicans ATCC 1237 were 9.2 µM and 3.9 µg/mL, respectively. Also, the “intracellular ROS production” value in the series on C. albicans ATCC 10231 [3] is reported as “significantly increased intracellular ROS production”. The “development of drug resistance” value in the series with C. albicans ATCC 10231 [4] is reported as “unable to develop drug resistance”. 1.14 ± 0.267 µM corresponded to half-maximal inhibition against hERG channel (IC50 at 60 min).

Broadly, the melting point is the temperature, or range, at which the solid turns liquid. In general, MIC refers to the least concentration at which growth counts as inhibited. A word on the IC50: it is the midpoint of a concentration-inhibition curve. A low value points to greater potency in that assay.
